Laboratory results from US20260137698A1, “CYCLIN-DEPENDENT KINASE 7 INHIBITORS” (JOINT STOCK COMPANY «BIOCAD», priority 2022, published 2026).
Read-outs that look alike come from different tables or passages of the source.

Legend:
CDK9/Cyclin K = CDK9/Cyclin K (Homo sapiens, UniProt P50750); test: Inhibition of CDK9/Cyclin K kinase activity (ADP-Glo); assay type: biochemical
Summary of the method: (§1)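 ADP-Glo luminescence quantified ATP consumption after a 40-60 minute, 25° C. reaction with ATP plus CDKtide, Histone H1 or PDKtide, following a 10-minute compound–kinase preincubation in DTT-supplemented kinase buffer A. Compounds spanned 11 concentrations from 50 μM in 4-fold dilutions; IC50 fitted to a four-parameter model.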

[1] = system: NCl-H82 (small cell lung cancer); test: Antiproliferative assay on NCl-H82 cells (AlamarBlue, 120 h); assay type: cell-based; conditions: mean value from several measurements
CDK7/Cyclin H/MNAT1 = CDK7/Cyclin H/MNAT1 (Homo sapiens, UniProt P50613); test: Inhibition of CDK7/Cyclin H/MNAT1 kinase activity (ADP-Glo); assay type: biochemical
Summary of the method: as §1

[2] = system: MDA-MB-468 (triple negative breast cancer); test: Antiproliferative assay on MDA-MB-468 cells (AlamarBlue, 96 h); assay type: cell-based; conditions: Homo sapiens, mean value from several measurements
CDK13/Cyclin K = CDK13/Cyclin K (Homo sapiens, UniProt Q14004); test: Inhibition of CDK13/Cyclin K kinase activity (ADP-Glo); assay type: biochemical
Description: Measurements were carried out in a 5 μl reaction volume using a 384-well plate (Corning Inc., order no. 4513). The analyzed substances were titrated from 50 μM in increments of 4 at 11 concentration points in a normal strength kinase buffer A (Thermo Fisher Scientific Inc, cat. no. PV3189) supplemented with DTT (Sigma, orde. no. 646563-10X.5ML) and prepared with water (Panreac, order no. 701074). Kinase was diluted in an analogous buffer, mixed with test compounds in plate wells and preincubated for 10 minutes at 25° C. Following incubation, a mixture of reaction substrate (CDKtide (SignalChem, order no. C06-58) or Histone H1 (SignalChem, order no. H10-54N) or PDKtide (SignalChem, order no. P10-58) and ATP (SignalChem, order no. V915B) prepared on a normal strength kinase buffer A was added. 1% solution of dimethyl sulfoxide (DMSO) (Sigma-Aldrich, order no. D2438) in the reaction volume was used as a negative control. The final concentrations of all reaction components are shown in Table 5. The plate was centrifuged at 400 rcf (Eppendorf, 5804 R) for 1 minute and incubated for 40-60 minutes at 25° C. The amount of ATP consumed in the kinase reaction was then measured using the ADP-Glo™ detection system. Luminescence signal was measured using Spark 20M tablet multifunction reader (Tecan Group Ltd, Switzerland). IC50 value was calculated using Magellan 7.2 (Tecan Group Ltd, Switzerland) by approximating experimental points by four-parameter model with the optimization by Levenberg-Marquardt:
[formula] • where A is the upper asymptote; D is the lower asymptote; C is IC50, half-maximal inhibitory concentration of kinase, nM; B is the curvature (slope).

CDK2/Cyclin A = CDK2/Cyclin A (Homo sapiens, UniProt P24941); test: Inhibition of CDK2/Cyclin A kinase activity (ADP-Glo); assay type: biochemical
Summary of the method: as §1

[3] = Passive membrane permeability through PAMPA artificial membrane, pH 7.4; assay type: in vitro ADME; conditions: pH 7.4, 10 μmol, 20 hours at room temperature, mean of multiple measurements, read-out: PAMPA passive permeability Pe
Summary of the method: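 Compound at 10 μmol in 0.01 M phosphate buffer pH 7.4 placed in donor wells over lecithin-phospholipid-impregnated PVDF filter, buffer in acceptor; 20 h at room temperature. Donor and acceptor levels measured by RP-HPLC-UV; Pe (cm/s) and membrane retention R (%) calculated.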

[4] = General cytotoxicity on primary differentiated HepaRG cells (72 h); assay type: cell-based; conditions: human, general toxicity, mean value from several measurements
Summary of the method: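 Test compounds spanning 200 μM to 0.2 nM were incubated for 72 hours with primary differentiated HepaRG cells. Cells had been kept one week in supplemented hepatic medium and seeded the night before at 25×10^3 per well, and viability was then measured.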

Sequence of CDK7/Cyclin H/MNAT1 (P50613 whole entry): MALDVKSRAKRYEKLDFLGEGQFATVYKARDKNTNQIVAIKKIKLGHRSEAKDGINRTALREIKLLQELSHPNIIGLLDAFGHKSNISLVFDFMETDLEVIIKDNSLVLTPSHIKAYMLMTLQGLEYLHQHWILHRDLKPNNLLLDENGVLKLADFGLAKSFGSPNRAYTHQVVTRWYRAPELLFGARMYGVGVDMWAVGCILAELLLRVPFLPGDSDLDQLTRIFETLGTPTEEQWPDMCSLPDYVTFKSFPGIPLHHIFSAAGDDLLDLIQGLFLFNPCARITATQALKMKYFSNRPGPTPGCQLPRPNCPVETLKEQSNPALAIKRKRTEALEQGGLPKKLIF
Sequence of CDK7/Cyclin H/MNAT1 (P51946 whole entry partner): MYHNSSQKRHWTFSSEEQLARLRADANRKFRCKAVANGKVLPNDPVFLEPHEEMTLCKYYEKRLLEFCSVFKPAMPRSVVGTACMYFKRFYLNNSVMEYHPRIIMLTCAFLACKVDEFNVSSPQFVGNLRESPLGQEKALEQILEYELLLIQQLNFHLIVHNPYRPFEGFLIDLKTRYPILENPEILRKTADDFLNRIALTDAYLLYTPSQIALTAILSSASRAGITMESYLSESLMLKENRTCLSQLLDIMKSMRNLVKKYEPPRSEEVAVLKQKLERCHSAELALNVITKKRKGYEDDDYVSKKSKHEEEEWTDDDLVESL
Sequence of CDK7/Cyclin H/MNAT1 (P51948 whole entry partner): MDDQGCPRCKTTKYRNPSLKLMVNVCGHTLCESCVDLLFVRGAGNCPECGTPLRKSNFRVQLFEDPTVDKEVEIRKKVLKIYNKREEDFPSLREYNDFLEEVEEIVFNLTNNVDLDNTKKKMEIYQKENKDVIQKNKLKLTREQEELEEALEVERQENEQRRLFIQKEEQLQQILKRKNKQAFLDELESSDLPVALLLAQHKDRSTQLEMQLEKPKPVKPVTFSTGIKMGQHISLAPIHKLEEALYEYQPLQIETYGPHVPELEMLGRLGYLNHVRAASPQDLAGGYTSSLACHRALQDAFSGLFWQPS
Sequence of CDK9/Cyclin K (P50750 whole entry): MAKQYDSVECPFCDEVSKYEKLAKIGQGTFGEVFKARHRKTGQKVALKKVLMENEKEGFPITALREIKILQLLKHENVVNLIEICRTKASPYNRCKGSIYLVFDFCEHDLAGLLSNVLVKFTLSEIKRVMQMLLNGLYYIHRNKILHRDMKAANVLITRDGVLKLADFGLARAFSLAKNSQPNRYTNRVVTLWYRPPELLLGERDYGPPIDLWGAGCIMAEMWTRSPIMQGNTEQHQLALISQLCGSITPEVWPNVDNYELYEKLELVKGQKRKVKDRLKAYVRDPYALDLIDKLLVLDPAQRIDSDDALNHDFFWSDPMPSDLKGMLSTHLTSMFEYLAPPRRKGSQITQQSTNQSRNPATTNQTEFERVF
Sequence of CDK9/Cyclin K (O75909 whole entry partner): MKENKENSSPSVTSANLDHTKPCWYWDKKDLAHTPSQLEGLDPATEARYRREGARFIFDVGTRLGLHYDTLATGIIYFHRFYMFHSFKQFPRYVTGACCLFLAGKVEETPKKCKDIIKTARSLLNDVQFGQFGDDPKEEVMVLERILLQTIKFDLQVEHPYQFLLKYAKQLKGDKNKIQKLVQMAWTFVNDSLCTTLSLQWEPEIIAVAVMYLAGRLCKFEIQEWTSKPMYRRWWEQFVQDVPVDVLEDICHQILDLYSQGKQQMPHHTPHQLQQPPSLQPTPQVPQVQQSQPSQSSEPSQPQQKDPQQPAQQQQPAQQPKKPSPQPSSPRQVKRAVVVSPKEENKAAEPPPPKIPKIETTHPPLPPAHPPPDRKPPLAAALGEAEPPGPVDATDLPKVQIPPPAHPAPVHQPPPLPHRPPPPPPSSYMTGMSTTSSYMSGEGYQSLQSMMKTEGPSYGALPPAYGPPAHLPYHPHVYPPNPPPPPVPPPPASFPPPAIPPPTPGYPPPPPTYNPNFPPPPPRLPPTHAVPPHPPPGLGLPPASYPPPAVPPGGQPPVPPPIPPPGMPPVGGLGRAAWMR
Sequence of CDK13/Cyclin K (Q14004 whole entry): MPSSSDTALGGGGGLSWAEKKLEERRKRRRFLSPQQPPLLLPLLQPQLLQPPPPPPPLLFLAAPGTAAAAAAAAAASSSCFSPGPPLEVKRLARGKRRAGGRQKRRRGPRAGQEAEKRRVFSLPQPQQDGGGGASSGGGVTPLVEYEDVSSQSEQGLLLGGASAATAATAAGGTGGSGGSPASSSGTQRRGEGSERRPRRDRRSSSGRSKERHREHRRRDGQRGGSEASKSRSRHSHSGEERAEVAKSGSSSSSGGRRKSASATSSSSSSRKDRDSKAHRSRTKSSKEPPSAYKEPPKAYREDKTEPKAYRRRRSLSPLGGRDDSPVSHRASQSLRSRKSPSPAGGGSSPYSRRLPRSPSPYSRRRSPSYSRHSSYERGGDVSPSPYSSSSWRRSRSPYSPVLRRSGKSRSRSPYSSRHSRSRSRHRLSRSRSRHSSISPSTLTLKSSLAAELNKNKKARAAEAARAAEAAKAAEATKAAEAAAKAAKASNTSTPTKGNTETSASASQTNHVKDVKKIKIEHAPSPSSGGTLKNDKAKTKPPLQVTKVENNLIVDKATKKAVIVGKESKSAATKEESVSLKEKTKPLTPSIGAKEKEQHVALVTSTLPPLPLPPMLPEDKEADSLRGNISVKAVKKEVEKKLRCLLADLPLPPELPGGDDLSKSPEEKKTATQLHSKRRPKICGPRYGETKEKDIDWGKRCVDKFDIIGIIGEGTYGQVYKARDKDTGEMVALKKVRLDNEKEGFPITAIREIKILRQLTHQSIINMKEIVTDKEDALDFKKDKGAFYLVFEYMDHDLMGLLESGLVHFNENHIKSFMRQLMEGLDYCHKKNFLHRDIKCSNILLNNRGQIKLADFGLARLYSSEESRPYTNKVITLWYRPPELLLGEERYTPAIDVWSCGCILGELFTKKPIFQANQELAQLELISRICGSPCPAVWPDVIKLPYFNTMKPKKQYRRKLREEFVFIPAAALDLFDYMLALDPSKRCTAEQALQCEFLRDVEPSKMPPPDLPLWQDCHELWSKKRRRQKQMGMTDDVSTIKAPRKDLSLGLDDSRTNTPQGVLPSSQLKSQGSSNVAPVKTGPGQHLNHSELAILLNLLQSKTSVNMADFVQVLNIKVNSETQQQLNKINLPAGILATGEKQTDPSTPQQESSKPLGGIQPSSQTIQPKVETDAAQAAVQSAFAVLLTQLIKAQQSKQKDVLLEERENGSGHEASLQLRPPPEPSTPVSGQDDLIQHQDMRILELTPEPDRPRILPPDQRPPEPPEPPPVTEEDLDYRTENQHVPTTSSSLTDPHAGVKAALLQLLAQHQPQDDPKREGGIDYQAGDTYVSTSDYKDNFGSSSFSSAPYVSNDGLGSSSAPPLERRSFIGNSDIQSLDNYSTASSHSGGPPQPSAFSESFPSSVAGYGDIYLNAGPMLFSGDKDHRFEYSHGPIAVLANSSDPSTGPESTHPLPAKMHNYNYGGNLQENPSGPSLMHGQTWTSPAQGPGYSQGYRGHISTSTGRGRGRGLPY
Sequence of CDK13/Cyclin K (O75909 whole entry partner): as the sequence (O75909 whole entry partner) above

CN1CCCc2c(-c3nc(N[C@H]4CCC5(CC5)NC4)ncc3C(F)(F)F)c[nH]c2C1=O [CDK7_1201, 3-[2-({4-azaspiro[2.5]octan-6-yl}amino)-5-(trifluoromethyl)py-rimidin-4-yl]-7-methyl-1H,4H,5H,6H,7H, 8H-pyrrolo[2,3-c]azepin-8-one]
IC50 (CDK9/Cyclin K; mean of multiple measurement series, ATP 50 μM, read-out: CDK9/Cyclin K IC50): 112 nM
IC50 (CDK9/Cyclin K; mean value from several measurements, read-out: IC50 CDK9/Cyclin K): 50 to 200 nM
IC50 [1]: < 10 nM
IC50 (CDK7/Cyclin H/MNAT1; mean of multiple measurement series, ATP 10 μM, read-out: CDK7/Cyclin H/MNAT1 IC50): < 5 nM
IC50 (CDK7/Cyclin H/MNAT1; mean value from several measurements, read-out: IC50 CDK7/Cyclin H/MNAT): < 5 nM
IC50 [2]: < 10 nM
IC50 (CDK13/Cyclin K; mean of multiple measurement series, ATP 10 μM, read-out: CDK13/Cyclin K IC50): 65 nM
IC50 (CDK13/Cyclin K; mean value from several measurements, read-out: IC50 CDK13/Cyclin K): 50 to 200 nM
IC50 (CDK2/Cyclin A; mean of multiple measurement series, ATP 50 μM, read-out: CDK2/Cyclin A IC50): 4500 nM
IC50 (CDK2/Cyclin A; mean value from several measurements, read-out: IC50 CDK2/Cyclin A): > 200 nM
Papp at 20 h, 10 μmol [3]: 5 to 10 ×10⁻⁶ cm/s
CC50 at 72 h [4]: 500 to 2000 nM
